Reference: patent US9718846B1, “Crystalline polymorphs of benfotiamine, process for preparation and its use thereof” (Shanghai Ri Xin Biotechnolgy Co., Ltd., priority 2012, dated 2017)

Key:
[1] = Dynamic vapor sorption analysis of hygroscopicity; assay type: physicochemical; details: RH from 5% to 95%, comparison of forms A, C, D, E
Excerpt: Dynamic vapor sorption analysis was used for measurement of the hygroscopicity of crystalline form A, C, D, and E under the scope of relative humidity (RH) from 5% to 95%.

[2] = Solubility in methanol/dichloromethane mixture; assay type: physicochemical; details: methanol/dichloromethane mixture (1:3 v/v), organic solvent or mixture; mixture organic solvent of methanol and dichloromethane (volume ratio 1:3)
Procedure: In 200 μl of a mixture organic solvent of methanol and dichloromethane (volume ratio 1:3) was added 10 mg of the crystalline form E of benfotiamine (solubility 50 mg/ml). Then, 1 ml of the poor solvent of ethanol was slowly added to the mixture along device wall. Precipitated crystals were collected by filtration, followed by evaporated in the air.

| Structure (SMILES) | hygroscopicity rank among the four crystalline forms [1] | solubility [2] [mg/mL] |
| --- | --- | --- |
| C/C(=C(\CCO[P+]([O-])(O)O)SC(=O)c1ccccc1)N(C=O)Cc1cnc(C)nc1N [crystalline form D, S-benzoylthiamine O-monophosphate] | highest | – |
| C/C(=C(\CCO[P+]([O-])(O)O)SC(=O)c1ccccc1)N(C=O)Cc1cnc(C)nc1N [crystalline form E, S-benzoylthiamine O-monophosphate] | lowest | 50 |
